We go through five substances from patent US6709649B1, “RANTES derived peptides with anti-HIV activity” (Fondazione Centro San Raffaele Del Monte Tabor, priority 1998, dated 2004).

Test [1] concerns CCR5-dependent HIV-1BaL strain. The experiment in a line: "cell-free" acute infection test (growth of HIV-1 in pre-activated primary mononuclear cells, p24 antigen). In kind it is cell-based. The note with it: at the tested doses. From the text: Some peptides of the invention have been tested to verify their inhibitory activity against HIV virus-1. Two different tests have been used: the “cell-free ” acute infection test and the test of inhibition of the formation of syncitia. The first test evaluates the growth of HIV-1 in primary mononuclear cells pre-activated in vitro and is closer to the natural model of infection. On the other hand, the test of syncitia inhibition evaluates the capability of an inhibitor to inhibit the membrane fusion induced by HIV and it makes use of cells of a continuous line T CD4+ (PM1) chronically infected with an HIV-1 CCR5-dependent (PM1BaL) strain. In both tests, cells were pre-treated with the peptides before exposition to the virus or to 5 the infected cells. Scalar concentrations for each peptide have been tested to calculate the 50% inhibitory dose (ID50), i.e. the dose capable of reducing by 50% the values of the untreated controls. The ID50 values (expressed as micromolar values) of different peptides in the acute infection test are illustrated in the following Table:
The ability of the mutants obtained as described in Example 2, to inhibit the infection by the prototypic macrophage-tropic HIV-1BaL strain, was evaluated in primary cultures of activated mononuclear cells from peripheral blood. The procedure used to infect PBL and to evaluate the production of p24 antigen is described in literature (Scarlatti et al., Nat. Med. November 3:11 1259-65, 1997).

Test [2] relates to HIV-1 CCR5-dependent (PM1BaL) strain. The experiment in a line: test of inhibition of the formation of syncitia (PM1 cells chronically infected with HIV-1BaL). In kind it is cell-based. The note with it: PM1 line infected by HIV-1BaL. From the text: Some peptides of the invention have been tested to verify their inhibitory activity against HIV virus-1. Two different tests have been used: the “cell-free ” acute infection test and the test of inhibition of the formation of syncitia. The first test evaluates the growth of HIV-1 in primary mononuclear cells pre-activated in vitro and is closer to the natural model of infection. On the other hand, the test of syncitia inhibition evaluates the capability of an inhibitor to inhibit the membrane fusion induced by HIV and it makes use of cells of a continuous line T CD4+ (PM1) chronically infected with an HIV-1 CCR5-dependent (PM1BaL) strain. In both tests, cells were pre-treated with the peptides before exposition to the virus or to 5 the infected cells. Scalar concentrations for each peptide have been tested to calculate the 50% inhibitory dose (ID50), i.e. the dose capable of reducing by 50% the values of the untreated controls. The ID50 values (expressed as micromolar values) of different peptides in the acute infection test are illustrated in the following Table: […]

Regarding “Ace-FAYIARPLPRAHIKEYFY-NH2 (Ac-FAYIARPLPRAHIKEYFY-NH2) [Peptide 1]”, the “capability to inhibit the acute infection (in words)” value in test [1] is listed as “marked increase in the capability to, inhibit the acute infection”. Moreover, in test [2], the “capability to inhibit the formation of syncitia (in words)” value is recorded as “increased capability to inhibit the formation of syncitia”. On to “SGKCSNPAVVFV [RANTES peptide used as control]”, for which the “capability to inhibit the acute infection (in words)” value in test [1] is given as “no antiviral activity”.

For the substance “YTSGKCSNPAVV [B, RANTES peptide used as control]”, in test [1], the “capability to inhibit the acute infection (in words)” value is reported as “no antiviral activity”. Turning to Ace-CFAYIARPLPRAHIKEYFY-NH2 [Peptide 2], the “capability to inhibit the acute infection (in words)” value in test [1] was “marked increase in the capability to, inhibit the acute infection”. Also, in test [2], the “capability to inhibit the formation of syncitia (in words)” value was “increased capability to inhibit the formation of syncitia”. Consider “YFYTSGKCSNPA [RANTES peptide used as control]”, for which the “capability to inhibit the acute infection (in words)” value in test [1] is given as “no antiviral activity”.
